pIC50: −log10 of the molar value. Where two headings read alike, the source gives them in different places.
What was measured:
[1] = target: T1, interaction between GMPPNP-bound recombinant K-Ras4B G12C mutant protein and cRAF RAS-binding domain (cRAF-RBD) (Homo sapiens, UniProt P01116, G12C); test: Inhibitory activity on interaction between KRAS G12C and cRAF (Alpha technology); settings: Table 2
T1 construct: His-tag (N)
Protocol: Interaction between recombinant K-Ras4B G12C mutant protein (amino acids 1-169, SEQ ID NO:2) and cRAF RAS-binding domain (cRAF-RBD, amino acids 50-132, Jena Biosciences GmbH) was measured using Alpha technology (PerkinElmer Inc.).
Recombinant KRAS G12C protein with an N-terminal His-tag was expressed in E. coli and purified by affinity chromatography. To prepare GTP-bound form and GDP-bound form of KRAS G12C protein, 50 μM KRAS G12C protein was incubated with 1 mM GMPPNP (Guanosine-5′-[(β,γ)-imido]triphosphate, Tetralithium salt) (Jena Bioscience GmbH) and 1 mM GDP, respectively, in a loading buffer (20 mM Tris-HCl (pH 7.5), 50 mM NaCl, 1 mM DTT and 2.5 mM EDTA) for 1 hour on ice. After the incubation, MgCl2 was added to a final concentration of 10 mM, followed by incubation at room temperature for 30 minutes. The mixture was allowed to pass through a NAP-5 column to remove free nucleotides and purified, and the resultant nucleotide-bound KRAS G12C protein was used for compound evaluation.
For the measurement of the inhibitory activity of compounds on interaction between KRAS G12C and cRAF-RBD, GMPPNP-bound KRAS G12C protein was incubated with various concentrations of compound in a reaction buffer (20 mM Tris-HCl (pH 7.5), 100 mM NaCl, 1 mM MgCl2, 1 mM TCEP, 0.1% Tween 20) at 25° C. for 1 hour. After the incubation, recombinant cRAF-RBD and Alpha detection reagents were added and incubated at room temperature for 1.5 hours for binding. Interaction of KRAS G12C and cRAF-RBD was monitored by measuring Alpha signal. Inhibition % was calculated using the signal from the reaction without test compound (DMSO control) as 0% inhibition and the signal from the reaction using GDP-bound KRAS G12C in place of GMPPNP-bound KRAS G12C as 100% inhibition. IC50 values were calculated from dose titration curve using curve fitting by XLfit software (IDBS).

MIA PaCa-2 cells = test: Growth inhibition activity on KRAS-G12C mutant cell line (CellTiter-Glo 3D); assay type: cell-based, human; settings: MIA PaCa-2, 3-day culture with compound; Table 3
Protocol: MIA PaCa-2 cells (given by Sumitomo Dainippon Pharma Co., Ltd.), which are a KRAS-G12C mutant human pancreas cancer cell line, were suspended in a 10% fetal bovine serum-containing RPMI1640 medium (manufactured by Fujifilm Wako Pure Chemical Corporation). The cell suspension was seeded into each well of a 384-well U bottom microplate and cultured in an incubator containing 5% CO2 gas at 37° C. for 1 day. The compounds obtained in the “Preparation of Compounds” section were used as test compounds and were dissolved in DMSO, respectively, and each test compound was diluted with DMSO to give a concentration 500 times the final concentration. The resultant solution of the test compound in DMSO was diluted with the medium used for suspending cells and added to each well of the cell-culture plate to give a DMSO final concentration of 0.2%, followed by culture in an incubator containing 5% CO2 gas at 37° C. for another 3 days. The cell count after 3-day culture in the presence of the test compound was measured using CellTiter-Glo 3D Reagent (manufactured by Promega Corporation). All wells were added with CellTiter-Glo 3D Reagent and mixed for 10 minutes. 30 minutes after mixing, luminescence was measured by a plate reader. The growth inhibition rate was calculated from the following equation, and the concentration of the test compound at which 50% inhibition was achieved (IC50 (nM)) was determined.
[formula] • T: the emission intensity in a well into which a test compound was added. • C: the emission intensity in a well into which a test compound was not added.

[2] = IC50, GMPPNP-bound KRAS G12C incubated with compound 25° C. 1 hour
[3] = GMPPNP-bound KRAS G12C incubated with compound 25° C. 1 hour, read-out: IC50

T1 sequence (P01116 with tags, fused parts or gaps isoform P01116-2 G12C): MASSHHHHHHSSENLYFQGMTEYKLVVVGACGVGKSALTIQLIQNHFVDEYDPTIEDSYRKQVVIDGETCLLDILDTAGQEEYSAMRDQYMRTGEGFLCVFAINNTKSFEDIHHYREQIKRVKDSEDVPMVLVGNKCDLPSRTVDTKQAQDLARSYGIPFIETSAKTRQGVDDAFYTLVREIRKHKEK

Row | Structure (SMILES) | pIC50 [1, 2] | pIC50 (MIA PaCa-2 cells) | pIC50 [1, 3]
1 | CO[C@H]1CC[C@H](NC/C=C/C(=O)Nc2c(F)cc(C(=O)c3cn4c5c(cccc35)-c3c(cccc3C(F)(F)F)OCC4)cc2F)CC1 (single isomer, unassigned) [Example 11-1] | < 5.17 | 5.11 | –
2 | CO[C@H]1CC[C@H](NC/C=C/C(=O)Nc2c(F)cc(C(=O)c3cn4c5c(cccc35)-c3c(cccc3C(F)(F)F)OCC4)cc2F)CC1 (single isomer, unassigned) [Example 11-2] | 7.11 | 7.04 | –
3 | CO[C@H]1CC[C@H](NC/C=C/C(=O)Nc2c(F)cc(C(=O)c3cn4c5c(cccc35)-c3c(C(F)(F)F)cc5c(nc(C)n5C)c3OCC4)cc2F)CC1 (single isomer, unassigned) [Example 12-1, (E)-N-(4-(8,9-dimethyl-6-(trifluoromethyl)-12,13-dihydro-8H-imidazo[4″,5″:3′,4′]benzol[1′,2′:7,8][1,4]oxazocino[6,5,4-hi]indole-2-carbonyl)-2,6-difluorophenyl)-4-(((1r,4r)-4-methoxycyclohexyl)amino)but-2-enamide] | 8.30 | 9.00 | –
4 | CO[C@H]1CC[C@H](NC/C=C/C(=O)Nc2c(F)cc(C(=O)c3cn4c5c(cccc35)-c3c(C(F)(F)F)cc5c(nc(C)n5C)c3OCC4)cc2F)CC1 (single isomer, unassigned) [Example 12-2, (E)-N-(4-(8,9-dimethyl-6-(trifluoromethyl)-12,13-dihydro-8H-imidazo[4″,5″:3′,4′]benzol[1′,2′:7,8][1,4]oxazocino[6,5,4-hi]indole-2-carbonyl)-2,6-difluorophenyl)-4-(((1r,4r)-4-methoxycyclohexyl)amino)but-2-enamide] | < 5.17 | 5.80 | –
5 | CO[C@H]1CC[C@H](NC/C=C/C(=O)Nc2c(F)cc(C(=O)c3cn4c5c(cccc35)-c3c(C)cc5c(nc(C)n5C)c3OCC4)cc2F)CC1 (single isomer, unassigned) [Example 14-1, (E)-N-(2,6-difluoro-4-(6,8,9-trimethyl-12,13-dihydro-8H-imidazo[4″,5″:3′,4′]benzo[1′,2′:7,8][1,4]oxazocino[6,5,4-hi]indole-2-carbonyl)phenyl)-4-(((11,4r)-4-methoxycyclohexyl)amino)but-2-enamide] | 8.05 | 7.77 | –
6 | CO[C@H]1CC[C@H](NC/C=C/C(=O)Nc2c(F)cc(C(=O)c3cn4c5c(cccc35)-c3c(C)cc5c(nc(C)n5C)c3OCC4)cc2F)CC1 (single isomer, unassigned) [Example 14-2, (E)-N-(2,6-difluoro-4-(6,8,9-trimethyl-12,13-dihydro-8H-imidazo[4″,5″:3′,4′]benzo[1′,2′:7,8][1,4]oxazocino[6,5,4-hi]indole-2-carbonyl)phenyl)-4-(((11,4r)-4-methoxycyclohexyl)amino)but-2-enamide] | < 5.17 | 5.43 | –
7 | CO[C@H]1CC[C@H](NC/C=C/C(=O)Nc2c(F)cc(C(=O)c3cn4c5c(cccc35)-c3c(C)cc5c(nc(C)n5C)c3OCCC4)cc2F)CC1 (single isomer, unassigned) [Example 15-1, (E)-N-(2,6-difluoro-4-(6,8,9-trimethyl-13,14-dihydro-8H,12H-imidazo[4″,5″:3′,4′]benzo[1′,2″:8,9][1,5]oxazonino[7,6,5-hi]indole-2-carbonyl)phenyl)-4-(((1r,4r)-4-methoxycyclohexyl)amino)but-2-enamide] | 5.41 | 5.57 | –
8 | CO[C@H]1CC[C@H](NC/C=C/C(=O)Nc2c(F)cc(C(=O)c3cn4c5c(cccc35)-c3c(C)cc5c(nc(C)n5C)c3OCCC4)cc2F)CC1 (single isomer, unassigned) [Example 15-2, (E)-N-(2,6-difluoro-4-(6,8,9-trimethyl-13,14-dihydro-8H,12H-imidazo[4″,5″:3′,4′]benzo[1′,2″:8,9][1,5]oxazonino[7,6,5-hi]indole-2-carbonyl)phenyl)-4-(((1r,4r)-4-methoxycyclohexyl)amino)but-2-enamide] | 7.46 | 7.57 | –
9 | CO[C@H]1CC[C@H](NC/C=C/C(=O)Nc2c(F)cc(C(=O)c3cn4c5c(cccc35)-c3c(C)cc5c(nc(C)n5C)c3OCC3(CC3)C4)cc2F)CC1 (single isomer, unassigned) [Example 21-1, (E)-N-(2,6-difluoro-4-(6′,8′,9′-trimethyl-8′H, 12′H,14′H-spiro[cyclopropane-1,13-imidazo[4″,5″:3′,4′]benzo[1′,2:8,9][1,5]oxazonino[7,6,5-hi]indole]-2′-carbonyl)phenyl)-4-(((1r,4t)-4-methoxycyclohexyl)amino)but-2-enamide] | 7.36 | 7.66 | –
10 | CO[C@H]1CC[C@H](NC/C=C/C(=O)Nc2c(F)cc(C(=O)c3cn4c5c(cccc35)-c3c(C)cc5c(nc(C)n5C)c3OCC3(CC3)C4)cc2F)CC1 (single isomer, unassigned) [Example 21-2, (E)-N-(2,6-difluoro-4-(6′,8′,9′-trimethyl-8′H, 12′H,14′H-spiro[cyclopropane-1,13-imidazo[4″,5″:3′,4′]benzo[1′,2:8,9][1,5]oxazonino[7,6,5-hi]indole]-2′-carbonyl)phenyl)-4-(((1r,4t)-4-methoxycyclohexyl)amino)but-2-enamide] | 5.55 | 5.82 | –
11 | CO[C@H]1CC[C@H](NC/C=C/C(=O)Nc2c(F)cc(C(=O)c3cn4c5c(cccc35)-c3c(C)cc5c(nc(C)n5C)c3OC[C@H](C)C4)cc2F)CC1 (single isomer, unassigned) [Example 23] | 7.72 | 7.89 | –
12 | CO[C@H]1CC[C@H](NC/C=C/C(=O)Nc2c(F)cc(C(=O)c3cn4c5c(cccc35)-c3c(C)cc5c(nc(C)n5C)c3OC[C@H](C)C4)cc2F)CC1 (single isomer, unassigned) [Example 24] | 5.74 | 5.96 | –
13 | CO[C@H]1CC[C@H](NC/C=C/C(=O)Nc2c(F)cc(C(=O)c3cc4c5c(cccn35)-c3c(C(F)(F)F)cc5c(nc(C)n5C)c3OCC4)cc2F)CC1 (single isomer, unassigned) [Example 30-1, (E)-N-(4-(9,10-dimethyl-7-(trifluoromethyl)-13,14-dihydro-9H-imidazo[4″,5″:5′,6′]benzo[1′,2′:2,3]oxocino[4,5,6-hi]indolizine-2-carbonyl)-2,6-difluorophenyl)-4-(((1r,4r)-4-methoxycyclohexyl)amino)but-2-enamide] | – | 8.52 | 8.15
14 | CO[C@H]1CC[C@H](NC/C=C/C(=O)Nc2c(F)cc(C(=O)c3cc4c5c(cccn35)-c3c(C(F)(F)F)cc5c(nc(C)n5C)c3OCC4)cc2F)CC1 (single isomer, unassigned) [Example 30-2, (E)-N-(4-(9,10-dimethyl-7-(trifluoromethyl)-13,14-dihydro-9H-imidazo[4″,5″:5′,6′]benzo[1′,2′:2,3]oxocino[4,5,6-hi]indolizine-2-carbonyl)-2,6-difluorophenyl)-4-(((1r,4r)-4-methoxycyclohexyl)amino)but-2-enamide] | – | 5.80 | 5.22
15 | Cc1nc2c3c(c(C(F)(F)F)cc2n1C)-c1cccn2c(C(=O)c4cc(F)c(NC(=O)/C=C/CNC5(C)COC5)c(F)c4)cc(c12)CCO3 (single isomer, unassigned) [Example 31-1, (E)-N-(4-(9,10-dimethyl-7-(trifluoromethyl)-13,14-dihydro-9H-imidazo[4″,5″:5′,6′]benzo[1′,2′:2,3]oxocino[4,5,6-hi]indolizine-2-carbonyl)-2,6-difluorophenyl)-4-((3-methyloxetan-3-yl)amino)but-2-enamide] | – | 8.15 | 7.96
